# Measured values from patent publication US20220315554A1, “COMPOUNDS COMPRISING A […] LIGAND AND USE THEREOF” (priority 2019, published 2022).
# Numbered stars: 1 amine (or outer) side, 2 acyl side, 3 side chain; on linkers, the order of the positions; unused ones are H or OH. Bridge positions count the residues as written; N and C are the ends. Square brackets hold non-standard residues; d marks the D form. Peptide text beside a SMILES is read from it. * marks the point of attachment. X35 = O=C(O)CN(CCN(CCN(CC(=O)O)CC(=O)O)CC(=O)NCCCOCCOCCOCCCN*)CC(=O)O; X12 = NCCNCC(CNCCN)C(=O)NCCCOCCOCCOCCCN*; X40 = NCCNCC(CNCCN)C(=O)NCCS(=O)(=O)CCN*; γGlu = O=C(O)[C@H](CCC(=O)[*:2])N[*:1]; mXylylene = c1cc(C[*:1])cc(C[*:2])c1; X51 = O=C(CN1CCC(N[*:1])CC1)[*:2]; 4Pal = N[C@@H](Cc1ccncc1)C(=O)O; Suc = O=C(CCC(=O)[*:2])[*:1]; X18 = NCCNCC(CNCCN)C(=O)*; Nle = CCCC[C@H](N)C(=O)O; AEEA = NCCOCCOCC(=O)O
# Columns and labels:
# Human recombinant FAP = target: T1, Human recombinant FAP (Homo sapiens, UniProt Q12884); test: FRET-based FAP protease activity assay; format: biochemical; design: purchased R&D systems 3715-SE; conditions: pIC50 Category (Activity), FRET substrate, 37° C.
# T1 sequence (Q12884 1-760): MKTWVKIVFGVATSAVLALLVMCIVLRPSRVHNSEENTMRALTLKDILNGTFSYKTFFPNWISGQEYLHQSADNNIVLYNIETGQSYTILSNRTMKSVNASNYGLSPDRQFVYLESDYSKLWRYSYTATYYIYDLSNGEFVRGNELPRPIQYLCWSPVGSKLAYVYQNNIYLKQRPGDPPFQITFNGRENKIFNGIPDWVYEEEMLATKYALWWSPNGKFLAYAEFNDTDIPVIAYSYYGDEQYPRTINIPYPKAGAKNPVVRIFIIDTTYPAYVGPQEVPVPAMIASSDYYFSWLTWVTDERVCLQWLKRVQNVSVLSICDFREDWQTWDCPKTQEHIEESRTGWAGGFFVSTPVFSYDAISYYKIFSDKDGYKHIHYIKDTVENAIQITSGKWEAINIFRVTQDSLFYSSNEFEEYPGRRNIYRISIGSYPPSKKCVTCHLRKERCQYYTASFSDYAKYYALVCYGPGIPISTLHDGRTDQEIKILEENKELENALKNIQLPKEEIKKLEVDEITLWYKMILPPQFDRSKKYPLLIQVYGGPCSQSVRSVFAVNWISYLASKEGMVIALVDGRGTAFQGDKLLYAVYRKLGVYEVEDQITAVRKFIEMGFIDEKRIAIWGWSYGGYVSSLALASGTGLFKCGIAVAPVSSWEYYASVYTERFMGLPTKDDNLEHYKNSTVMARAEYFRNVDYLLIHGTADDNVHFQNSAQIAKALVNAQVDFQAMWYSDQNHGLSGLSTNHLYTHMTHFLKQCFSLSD
# [1] = target: T2, FAP-expressing human WI-38 fibroblasts (Homo sapiens, UniProt Q12884); test: Competitive FACS binding assay; conditions: pIC50 Category (FACS), competition with 3 nM Cy5-labeled compound, 4° C., 1 hour
# T2 construct: FAP-expressing human WI-38 fibroblasts (ECACC) were cultured in EMEM; host or cells: WI-38 human fibroblasts
# T2 sequence (Q12884 1-760): T1 sequence (Q12884 1-760)
# Description: Cells were analyzed in an Attune NxT flow cytometer. […]
SMILES,IC50 (Human recombinant FAP) [nM],IC50 [1] [nM]
"CCCCCC(=O)N[C@H]1CSCc2cc(CSCCN)cc(c2)CSC[C@@H](C(=O)O)NC(=O)[C@H](Cc2ccccc2)NC(=O)[C@H](CCC(N)=O)NC(=O)[C@H]([C@@H](C)O)NC(=O)[C@@H]2CCCN2C(=O)[C@@H]2CCCN2C1=O [3BP-4089, Hex-[Cys(tMeBn(H-AET))-Pro-Pro-Thr-Gln-Phe-Cys]-OH]",10 to 79.4,100 to 794
"CCCCCC(=O)N[C@@H]1CSCc2cc(CSCCNC(=O)CN3CCN(CC(=O)O)CCN(CC(=O)O)CCN(CC(=O)O)CC3)cc(c2)CSC[C@@H](C(=O)O)NC(=O)[C@H](Cc2ccccc2)NC(=O)[C@H](CCC(N)=O)NC(=O)[C@H]([C@@H](C)O)NC(=O)[C@@H]2CCCN2C(=O)[C@@H]2CCCN2C1=O [3BP-4109, Hex-[D-Cys-(tMeBn(DOTA-AET))-Pro-Pro-Thr-Gln-Phe-Cys]-OH]",< 10,< 10
"CCCCCC(=O)N[C@@H]1CSCc2cc(CSCCNC(=O)CN3CCN(CC(=O)O)CCN(CC(=O)O)CCN(CC(=O)O)CC3)cc(c2)CSC[C@H](C(=O)O)NC(=O)[C@H](Cc2ccccc2)NC(=O)[C@H](CCC(N)=O)NC(=O)[C@H]([C@@H](C)O)NC(=O)[C@@H]2CCCN2C(=O)[C@@H]2CCCN2C1=O [3BP-4110, Hex-[D-Cys-(tMeBn(DOTA-AET))-Pro-Pro-Thr-Gln-Phe-D-Cys]-OH]",10 to 79.4,10 to 79.4
"CCCCCC(=O)N[C@H]1CSCc2cc(CSCCNC(=O)CN3CCN(CC(=O)O)CCN(CC(=O)O)CCN(CC(=O)O)CC3)cc(c2)CSC[C@H](C(=O)O)NC(=O)[C@H](Cc2ccccc2)NC(=O)[C@H](CCC(N)=O)NC(=O)[C@H]([C@@H](C)O)NC(=O)[C@@H]2CCCN2C(=O)[C@@H]2CCCN2C1=O [3BP-4111, Hex-[Cys-(tMeBn(DOTA-AET))-Pro-Pro-Thr-Gln-Phe-D-Cys]-OH]",10 to 79.4,10 to 79.4
"CCCCCC(=O)N[C@H]1CSCc2cc(cc(CN3CCN(C(=O)COCCOCCNC(=O)C(CNCCN)CNCCN)CC3)c2)CSC[C@@H](C(=O)O)NC(=O)[C@H](Cc2ccccc2)NC(=O)[C@H](CCC(N)=O)NC(=O)[C@H]([C@@H](C)O)NC(=O)[C@@H]2CCCN2C(=O)[C@@H]2CCCN2C1=O [3BP-4169, Hex-[Cys-(tMeBn(N4Ac-O2Oc-PP))-Pro-Pro-Thr-Gln-Phe-Cys]-OH]",< 10,10 to 79.4
"CCCCCC(=O)N[C@H]1CSCc2cc(CSCCNC(=O)CCC(=O)NCCCOCCOCCOCCCNC(=O)CCC(=O)NCCCOCCOCCOCCCNC(=O)CCC(=O)NCCCOCCOCCOCCCNC(=O)CCCNCCCOCCOCCOCCCNC(=O)CCCC[C@H]3SC[C@H]4NC(=O)N[C@H]43)cc(c2)CSC[C@@H](C(=O)O)NC(=O)[C@H](Cc2ccccc2)NC(=O)[C@H](CCC(N)=O)NC(=O)[C@H]([C@@H](C)O)NC(=O)[C@@H]2CCCN2C(=O)[C@@H]2CCCN2C1=O [3BP-4170, Hex-[Cys-(tMeBn(Bio-Ttds-Ttds-Ttds-Ttds-AET))-Pro-Pro-Thr-Gln-Phe-Cys]-OH]",10 to 79.4,10 to 79.4
"CCCCCC(=O)N[C@H]1CSCc2cc(cc(CN3CCNCC3)c2)CSC[C@@H](C(=O)O)NC(=O)[C@H](Cc2ccccc2)NC(=O)[C@H](CCC(N)=O)NC(=O)[C@H]([C@@H](C)O)NC(=O)[C@@H]2CCCN2C(=O)[C@@H]2CCCN2C1=O [3BP-4181, Hex-[Cys-(tMeBn(H-PP))-Pro-Pro-Thr-Gln-Phe-Cys]-OH]",10 to 79.4,10 to 79.4
"CCCCCC(=O)N[C@H]1CSCc2cccc(c2)CSC[C@@H](C(=O)O)NC(=O)[C@H](Cc2ccccc2)NC(=O)[C@H](CCC(N)=O)NC(=O)[C@H]([C@@H](C)O)NC(=O)[C@@H]2CCCN2C(=O)[C@@H]2CCCN2C1=O [3BP-4186, Hex-[Cys-(3MeBn)-Pro-Pro-Thr-Gln-Phe-Cys]-OH]",10 to 79.4,10 to 79.4
"CCCCCC(=O)N[C@H]1CSCc2cc(CSCCNC(=O)CN(CCN(CC(=O)O)CC(=O)O)CCN(CC(=O)O)CC(=O)O)cc(c2)CSC[C@@H](C(=O)O)NC(=O)[C@H](Cc2ccccc2)NC(=O)[C@H](CCC(N)=O)NC(=O)[C@H]([C@@H](C)O)NC(=O)[C@@H]2CCCN2C(=O)[C@@H]2CCCN2C1=O [3BP-4214, Hex-[Cys-(tMeBn(DTPA-AET))-Pro-Pro-Thr-Gln-Phe-Cys]-OH]",10 to 79.4,10 to 79.4
"CCCC[C@H](NC(=O)CN1CCC(NC(=O)C(CNCCN)CNCCN)CC1)C(=O)N[C@H]1CSCc2cccc(c2)CSC[C@@H](C(=O)O)NC(=O)[C@H](Cc2ccccc2)NC(=O)[C@H](CCC(=O)O)NC(=O)[C@H]([C@@H](C)O)NC(=O)[C@@H]2CCCN2C(=O)[C@@H]2CCCN2C1=O [3BP-4220, N4Ac-APAc-Nle-[Cys-(3MeBn)-Pro-Pro-Thr-Glu-Phe-Cys]-OH] (X18-[X51][Nle]CPPTEFC-OH; linker 3-9 via mXylylene)",> 1000,> 1000
"CCCC[C@H](NC(=O)CCC(=O)NCCCOCCOCCOCCCNC(=O)C(CNCCN)CNCCN)C(=O)N[C@H]1CSCc2cccc(c2)CSC[C@@H](C(=O)O)NC(=O)[C@H](Cc2ccncc2)NC(=O)[C@H](CCC(=O)O)NC(=O)[C@H]([C@@H](C)O)NC(=O)[C@@H]2CCCN2C(=O)[C@@H]2CCCN2C1=O [3BP-4223, N4Ac-Ttds-Nle-[Cys-(3MeBn)-Pro-Pro-Thr-Glu-Ppa-Cys]-OH] ({X12-Suc}-[Nle]CPPTE[4Pal]C-OH; linker 2-8 via mXylylene)",100 to 794,100 to 794
"CCCCCC(=O)N[C@H]1CSCc2cc(CSCCNC(=O)COCCOCCNC(=O)CN(CCN(CC(=O)O)CC(=O)O)CCN(CC(=O)O)CC(=O)O)cc(c2)CSC[C@@H](C(=O)O)NC(=O)[C@H](Cc2ccccc2)NC(=O)[C@H](CCC(N)=O)NC(=O)[C@H]([C@@H](C)O)NC(=O)[C@@H]2CCCN2C(=O)[C@@H]2CCCN2C1=O [3BP-4224, Hex-[Cys-(tMeBn(DTPA-O2Oc-AET))-Pro-Pro-Thr-Gln-Phe-Cys]-OH]",10 to 79.4,10 to 79.4
"CCCC[C@H](NC(=O)COCCOCCNC(=O)C(CNCCN)CNCCN)C(=O)N[C@H]1CSCc2cccc(c2)CSC[C@@H](C(=O)O)NC(=O)[C@H](Cc2ccccc2)NC(=O)[C@H](CCC(=O)O)NC(=O)[C@H]([C@@H](C)O)NC(=O)[C@@H]2CCCN2C(=O)[C@@H]2CCCN2C1=O [3BP-4228, N4Ac-O2O-Nle-[Cys-(3MeBn)-Pro-Pro-Thr-Glu-Phe-Cys]-OH] ({X18-AEEA}-[Nle]CPPTEFC-OH; linker 2-8 via mXylylene)",100 to 794,> 1000
"CCCC[C@H](NC(=O)CCC(=O)NCCCOCCOCCOCCCNC(=O)CN(CCN(CC(=O)O)CC(=O)O)CCN(CC(=O)O)CC(=O)O)C(=O)N[C@H]1CSCc2cccc(c2)CSC[C@@H](C(=O)O)NC(=O)[C@H](Cc2ccccc2)NC(=O)[C@H](CCC(=O)O)NC(=O)[C@H]([C@@H](C)O)NC(=O)[C@@H]2CCCN2C(=O)[C@@H]2CCCN2C1=O [3BP-4229, DTPA-Ttds-Nle-[Cys-(3MeBn)-Pro-Pro-Thr-Glu-Phe-Cys]-OH] ({X35-Suc}-[Nle]CPPTEFC-OH; linker 2-8 via mXylylene)",10 to 79.4,100 to 794
"CCCC[C@H](NC(=O)CC[C@H](NC(=O)C(CNCCN)CNCCN)C(=O)O)C(=O)N[C@H]1CSCc2cccc(c2)CSC[C@@H](C(=O)O)NC(=O)[C@H](Cc2ccccc2)NC(=O)[C@H](CCC(=O)O)NC(=O)[C@H]([C@@H](C)O)NC(=O)[C@@H]2CCCN2C(=O)[C@@H]2CCCN2C1=O [3BP-4230, N4Ac-gGlu-Nle-[Cys-(3MeBn)-Pro-Pro-Thr-Glu-Phe-Cys]-OH] ({X18-γGlu}-[Nle]CPPTEFC-OH; linker 2-8 via mXylylene)",> 1000,> 1000
"C[C@@H](O)[C@@H]1NC(=O)[C@@H]2CCCN2C(=O)[C@@H]2CCCN2C(=O)[C@@H](NC(=O)[C@H](CCC(=O)O)NC(=O)CCC(=O)NCCCOCCOCCOCCCNC(=O)C(CNCCN)CNCCN)CSCc2cccc(c2)CSC[C@@H](C(=O)O)NC(=O)[C@H](Cc2ccccc2)NC(=O)[C@H](CCC(=O)O)NC1=O [3BP-4233, N4Ac-Ttds-Glu-[Cys-(3MeBn)-Pro-Pro-Thr-Glu-Phe-Cys]-OH] ({X12-Suc}-ECPPTEFC-OH; linker 2-8 via mXylylene)",> 1000,100 to 794
"CCCC[C@H](NC(=O)CCC(=O)NCCS(=O)(=O)CCNC(=O)C(CNCCN)CNCCN)C(=O)N[C@H]1CSCc2cccc(c2)CSC[C@@H](C(=O)O)NC(=O)[C@H](Cc2ccccc2)NC(=O)[C@H](CCC(=O)O)NC(=O)[C@H]([C@@H](C)O)NC(=O)[C@@H]2CCCN2C(=O)[C@@H]2CCCN2C1=O [3BP-4243, N4Ac-Efa-Nle-[Cys-(3MeBn)-Pro-Pro-Thr-Glu-Phe-Cys]-OH] ({X40-Suc}-[Nle]CPPTEFC-OH; linker 2-8 via mXylylene)",10 to 79.4,10 to 79.4
